Test results from US20160271263A1 (Novo Nordisk A/S, priority 2010, published 2016).
Numbered stars: 1 amine (or outer) side, 2 acyl side, 3 side chain; on linkers, the order of the positions; unused ones are H or OH. Side chains are listed from the residue outwards. Peptide text beside a SMILES is read from it. * marks the point of attachment. C18 diacid = O=C(O)CCCCCCCCCCCCCCCCC(=O)*; γGlu = O=C(O)[C@H](CCC(=O)[*:2])N[*:1]; AEEA = NCCOCCOCC(=O)O

What follows are compounds tested against glucagon receptor (Homo sapiens, UniProt P47871) (assay: cell-based).
glucagon receptor, sequence (P47871 26-477): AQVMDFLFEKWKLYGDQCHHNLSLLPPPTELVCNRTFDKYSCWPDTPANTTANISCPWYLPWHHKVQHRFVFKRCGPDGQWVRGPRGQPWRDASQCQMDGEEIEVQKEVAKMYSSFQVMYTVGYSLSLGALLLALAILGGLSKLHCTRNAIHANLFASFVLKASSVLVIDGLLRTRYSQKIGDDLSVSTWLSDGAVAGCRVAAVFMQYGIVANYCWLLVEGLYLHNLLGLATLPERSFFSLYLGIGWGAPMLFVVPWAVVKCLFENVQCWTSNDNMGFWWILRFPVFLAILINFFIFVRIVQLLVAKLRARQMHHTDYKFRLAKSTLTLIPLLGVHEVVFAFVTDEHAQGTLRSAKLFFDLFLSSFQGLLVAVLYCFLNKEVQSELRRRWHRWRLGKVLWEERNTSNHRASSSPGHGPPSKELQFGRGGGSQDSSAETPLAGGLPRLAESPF

EC50	SMILES
155 pM	CC(C)C[C@H](NC(=O)[C@H](Cc1ccc(O)cc1)NC(=O)[C@H](CCCCN)NC(=O)[C@H](CO)NC(=O)[C@H](Cc1ccc(O)cc1)NC(=O)[C@H](CC(=O)O)NC(=O)[C@H](CO)NC(=O)[C@@H](NC(=O)[C@H](Cc1ccccc1)NC(=O)[C@@H](NC(=O)CNC(=O)[C@H](CCC(N)=O)NC(=O)[C@H](CO)NC(=O)[C@@H](N)Cc1c[nH]cn1)[C@@H](C)O)[C@@H](C)O)C(=O)N[C@@H](CC(=O)O)C(=O)N[C@@H](CO)C(=O)N[C@@H](CCCNC(=N)N)C(=O)N[C@@H](CCCNC(=N)N)C(=O)N[C@@H](C)C(=O)N[C@@H](CCC(N)=O)C(=O)N[C@@H](CC(=O)O)C(=O)N[C@@H](Cc1ccccc1)C(=O)N[C@H](C(=O)N[C@@H](CCC(N)=O)C(=O)N[C@@H](CCCCNC(=O)COCCOCCNC(=O)COCCOCCNC(=O)CC[C@H](NC(=O)CCCCCCCCCCCCCCCCC(=O)O)C(=O)O)C(=O)N[C@@H](CC(C)C)C(=O)N[C@@H](CC(C)C)C(=O)N[C@@H](CC(N)=O)C(=O)N[C@H](C(=O)O)[C@@H](C)O)C(C)C [Example 7]
20 pM	CC(C)C[C@H](NC(=O)[C@H](Cc1ccc(O)cc1)NC(=O)[C@H](CCCCN)NC(=O)[C@H](CO)NC(=O)[C@H](Cc1ccc(O)cc1)NC(=O)[C@H](CC(=O)O)NC(=O)[C@H](CO)NC(=O)[C@@H](NC(=O)[C@H](Cc1ccccc1)NC(=O)[C@@H](NC(=O)CNC(=O)[C@H](CCC(N)=O)NC(=O)[C@H](CO)NC(=O)[C@@H](N)Cc1c[nH]cn1)[C@@H](C)O)[C@@H](C)O)C(=O)N[C@@H](CC(=O)O)C(=O)N[C@@H](CO)C(=O)N[C@@H](CCCNC(=N)N)C(=O)N[C@@H](CCCNC(=N)N)C(=O)N[C@@H](C)C(=O)N[C@@H](CCC(N)=O)C(=O)N[C@@H](CC(=O)O)C(=O)N[C@@H](Cc1ccccc1)C(=O)N[C@H](C(=O)N[C@@H](CCCCNC(=O)COCCOCCNC(=O)COCCOCCNC(=O)CC[C@H](NC(=O)CCCCCCCCCCCCCCCCC(=O)O)C(=O)O)C(=O)N[C@@H](Cc1c[nH]c2ccccc12)C(=O)N[C@@H](CC(C)C)C(=O)N[C@@H](CC(C)C)C(=O)N[C@@H](CO)C(=O)N[C@H](C(=O)O)[C@@H](C)O)C(C)C [Example 14]
33 pM	CC(C)C[C@H](NC(=O)[C@H](Cc1ccc(O)cc1)NC(=O)[C@H](CCCCN)NC(=O)[C@H](CO)NC(=O)[C@H](Cc1ccc(O)cc1)NC(=O)[C@H](CC(=O)O)NC(=O)[C@H](CO)NC(=O)[C@@H](NC(=O)[C@H](Cc1ccccc1)NC(=O)[C@@H](NC(=O)CNC(=O)[C@H](CCC(N)=O)NC(=O)[C@H](CO)NC(=O)[C@@H](N)Cc1c[nH]cn1)[C@@H](C)O)[C@@H](C)O)C(=O)N[C@@H](CC(=O)O)C(=O)N[C@@H](CO)C(=O)N[C@@H](CCCCN)C(=O)N[C@@H](C)C(=O)N[C@@H](C)C(=O)N[C@@H](CCC(N)=O)C(=O)N[C@@H](CCC(=O)O)C(=O)N[C@@H](Cc1ccccc1)C(=O)N[C@H](C(=O)N[C@@H](CCCCNC(=O)COCCOCCNC(=O)COCCOCCNC(=O)CC[C@H](NC(=O)CCCCCCCCCCCCCCCCC(=O)O)C(=O)O)C(=O)N[C@@H](Cc1c[nH]c2ccccc12)C(=O)N[C@@H](CC(C)C)C(=O)N[C@@H](CC(C)C)C(=O)N[C@@H](CC(N)=O)C(=O)N[C@H](C(N)=O)[C@@H](C)O)C(C)C [Example 37, N^ε24-([2-[2-[2-[[2-[2-[2-[[(4S)-5-hydroxy-4-[(18-hydroxy-18-oxooctadecanoyl)amino]-5-oxopentanoyl]amino]ethoxy]ethoxy]acetyl]amino]ethoxy]ethoxy]acetyl])[Lys^17, Ala^18,Glu^21, Lys^24, Leu^27] Glucagon peptide amide] (H-HSQGTFTSDYSKYLDSKAAQEFVK([AEEA-AEEA-γGlu-C18 diacid])WLLNT-NH2; N-terminus assumed)
